Results from PubChem BioAssay (NCI).
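Cultured in 96-well plates, cells were exposed to test compound for 48 hours across five concentrations. At the TGI there is no net growth.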

Experiments:
Assay in all cases: DTP human tumour cell line panel, 48 h
[1] = tested on: XF 498 CNS
[2] = tested on: UACC-257 melanoma
[3] = tested on: DLD-1 colon
[4] = tested on: M19-MEL melanoma
[5] = tested on: DMS 114 small cell lung
[6] = tested on: DMS 273 small cell lung
[7] = tested on: KM20L2 colon
[8] = tested on: LXFL 529 NSCLC
[9] = tested on: SNB-78 CNS
[10] = tested on: OVCAR-5 ovarian
[11] = tested on: HOP-18 NSCLC
[12] = tested on: RXF-631 renal

Row | Compound | TGI [1] [µM] | TGI [2] [µM] | TGI [3] [µM] | TGI [4] [µM] | TGI [5] [µM] | TGI [6] [µM] | TGI [7] [µM] | TGI [8] [µM] | TGI [9] [µM] | TGI [10] [µM] | TGI [11] [µM] | TGI [12] [µM]
1 | COc1cc2c(oc(=O)c3cc4cc([Si](C)(C)C)oc4c(OC)c32)c2cccc(O)c12 | > 100 | > 100 | > 100 | > 100 | > 100 | > 100 | > 100 | > 100 | > 100 | > 100 | > 100 | 
2 | Cn1c(=O)cc2[nH]c3ccccc3n2c1=O |  | > 100 | > 100 | > 100 | > 100 | 45.3 | > 100 | > 100 | > 100 | > 100 | > 100 | 86.5
3 | ClCC[N-]CC[N-]CCCl.ClCC[N-]CC[N-]CCCl.[O-][Cl+3]([O-])([O-])O.[Zn+2] |  | 63.2 | 35 | > 57.1 | > 55.8 | > 60.2 | > 100 | 35.9 | > 76.6 | 46.6 | 56.5 | 
4 | COC(=O)c1c(-c2cc(OC)c(OC)c(OC)c2)oc2ccccc2c1=O |  | > 100 | > 100 | > 100 |  | > 100 | > 100 | > 100 | > 100 | > 100 | > 100 | 
5 | C=CCCCN1CCCC(C)C1=S (configuration not stated) | > 100 | > 100 | > 100 | > 100 | > 100 | > 100 | > 100 |  |  | > 100 | > 100 | > 100
6 | COCN(C)c1nc(N(C)C)nc(N(C)C)n1 |  | > 100 | > 100 | > 100 | > 100 | > 100 | > 100 | > 100 | > 100 | > 100 | > 100 | 
7 | COc1ccc(OC)c(NC(=O)C(=O)CC(=O)c2sc(-n3nc(-c4ccccc4)cc3-c3ccccc3)nc2C)c1 |  | > 100 | > 100 | > 100 | > 100 | > 100 | > 100 | > 100 | > 100 | > 100 |  | > 100
8 | CCN(CC)C(=S)SCC(=O)Nc1nc2c(s1)CCCC2 | > 100 | > 100 | > 100 | > 100 | > 100 | > 100 | > 100 | > 100 | > 100 | > 100 |  | 
9 | COc1ccc(OC)c(/C=C2\CCc3ccccc3C2=O)c1 | 11 |  | 22.8 | 23.5 | 5.21 | 12.8 | 9.62 | 31.8 |  | 25.5 | 57.1 | 
10 | CSc1ccc(NC(=O)C2c3[nH]c4ccccc4c3C3CCC(C(C)(C)C)CC3C2C(=O)O)cc1 (configuration not stated) | 39.7 | > 100 | 54.6 | 57.3 | 63.4 | 30 | 32.6 | 31.8 | 53.2 |  | 35.9 | 
11 | CC1=NN2C(c3ccc([N+](=O)[O-])cc3)=CSC2=NC(C)(C)C1 | > 100 | > 100 | > 100 | > 100 | > 100 | > 100 | > 100 | > 100 | > 100 | > 100 | > 100 | > 100
12 | Cc1c2ccncc2c(C)c2c1[nH]c1ccc(Oc3ccccc3)cc12 | 3.61 | 4.33 |  |  | 3.35 | 3.07 | 3.36 | 4.28 | 6.68 | 3.94 | 30.4 | 
13 | Cn1c2ccccc2c2ccc3c(c21)C(=O)C(c1ccccc1)=CC3=O |  | > 100 | 64.6 | 59.9 | 43.2 | 84 |  | 33.5 | > 100 | > 100 | 5.51 | 
14 | N#Cc1ccc(Oc2ccccc2)cc1C#N | > 100 | > 100 | > 100 | > 100 | 59.1 | 34.5 | > 100 | > 100 | > 100 | > 100 | > 100 | 
15 | CC1(C)Cc2c(oc3ncnc(N)c23)CS1 | > 100 | > 100 | > 100 | > 100 | > 100 | > 100 | > 100 | > 100 | > 100 | > 100 |  | > 100
